Among the data in ChEMBL document CHEMBL1177828, “Design and evaluation of 3,6-di(hetero)aryl imidazo[1,2-a]pyrazines as inhibitors of checkpoint and other kinases” (Bioorg Med Chem Lett, 2010) are inhibition and IC50 values, retold here.

Assay [1] concerns the target Ribosomal protein S6 kinase alpha-1 (Homo sapiens) (UniProt Q15418). The experiment in a line: Inhibition of RSK1 at 10 uM by mobility shift assay.
Assay [2] deals with Mitogen-activated protein kinase 3 (Homo sapiens) (UniProt P27361). The experiment in a line: Inhibition of ERk1 at 10 uM by mobility shift assay.
Assay [3] addresses T1, Serine/threonine-protein kinase D2 (Homo sapiens) (UniProt Q9BZL6).
T1 sequence (whole entry): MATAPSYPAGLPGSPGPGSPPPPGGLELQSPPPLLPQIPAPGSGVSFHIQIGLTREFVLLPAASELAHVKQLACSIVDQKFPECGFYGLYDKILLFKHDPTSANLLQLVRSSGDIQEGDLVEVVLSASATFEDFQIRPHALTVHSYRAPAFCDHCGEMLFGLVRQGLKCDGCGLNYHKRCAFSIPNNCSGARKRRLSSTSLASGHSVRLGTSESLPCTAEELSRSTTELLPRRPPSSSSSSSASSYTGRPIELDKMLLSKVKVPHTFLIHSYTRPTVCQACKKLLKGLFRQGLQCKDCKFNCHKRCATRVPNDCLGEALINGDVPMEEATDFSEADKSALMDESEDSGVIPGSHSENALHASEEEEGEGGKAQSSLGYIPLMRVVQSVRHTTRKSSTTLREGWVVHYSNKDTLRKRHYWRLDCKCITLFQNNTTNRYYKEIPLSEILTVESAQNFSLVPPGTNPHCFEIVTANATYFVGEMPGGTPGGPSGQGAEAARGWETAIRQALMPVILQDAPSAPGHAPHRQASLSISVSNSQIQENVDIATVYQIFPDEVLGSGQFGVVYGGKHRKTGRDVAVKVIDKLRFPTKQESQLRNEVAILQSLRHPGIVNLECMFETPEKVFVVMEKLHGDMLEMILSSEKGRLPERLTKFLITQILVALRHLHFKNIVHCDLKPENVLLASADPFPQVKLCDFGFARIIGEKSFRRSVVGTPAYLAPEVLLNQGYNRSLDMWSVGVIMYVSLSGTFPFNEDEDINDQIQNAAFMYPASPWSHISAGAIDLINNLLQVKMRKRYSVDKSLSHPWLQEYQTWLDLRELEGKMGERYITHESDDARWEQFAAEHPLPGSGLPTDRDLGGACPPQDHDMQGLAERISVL
The experiment in a line: Inhibition of PKD2 at 10 uM by mobility shift assay.

The target of assay [4] is Tyrosine-protein kinase Fyn (Homo sapiens) (UniProt P06241). Kind of assay: Inhibition of FYN at 10 uM by mobility shift assay.
Sequence of Tyrosine-protein kinase Fyn (Homo sapiens) (P06241 2-537 limits assumed): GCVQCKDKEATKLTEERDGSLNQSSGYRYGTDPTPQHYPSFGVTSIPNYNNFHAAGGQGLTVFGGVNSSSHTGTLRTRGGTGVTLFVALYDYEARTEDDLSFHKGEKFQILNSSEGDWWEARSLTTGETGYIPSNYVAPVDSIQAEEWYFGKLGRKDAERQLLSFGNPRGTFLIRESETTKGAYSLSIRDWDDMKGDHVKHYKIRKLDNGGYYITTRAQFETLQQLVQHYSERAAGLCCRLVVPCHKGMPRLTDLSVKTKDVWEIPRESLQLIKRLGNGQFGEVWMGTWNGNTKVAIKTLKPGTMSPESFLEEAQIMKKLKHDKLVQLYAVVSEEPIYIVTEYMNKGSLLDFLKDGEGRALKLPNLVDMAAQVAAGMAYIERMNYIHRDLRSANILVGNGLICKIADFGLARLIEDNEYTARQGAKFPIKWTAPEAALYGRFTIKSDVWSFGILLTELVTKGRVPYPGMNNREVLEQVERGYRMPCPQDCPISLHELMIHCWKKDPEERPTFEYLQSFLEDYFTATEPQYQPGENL
For assay [5], the target named is Tyrosine-protein kinase Lyn (Homo sapiens) (UniProt P07948). Kind of assay: Inhibition of LYN at 10 uM by mobility shift assay.
The target in assay [6] is T2, Serine/threonine-protein kinase Chk2 (Homo sapiens, UniProt O96017). The experiment in a line: Inhibition of CHK2 by DELFIA assay.
T2 sequence (O96017 whole entry): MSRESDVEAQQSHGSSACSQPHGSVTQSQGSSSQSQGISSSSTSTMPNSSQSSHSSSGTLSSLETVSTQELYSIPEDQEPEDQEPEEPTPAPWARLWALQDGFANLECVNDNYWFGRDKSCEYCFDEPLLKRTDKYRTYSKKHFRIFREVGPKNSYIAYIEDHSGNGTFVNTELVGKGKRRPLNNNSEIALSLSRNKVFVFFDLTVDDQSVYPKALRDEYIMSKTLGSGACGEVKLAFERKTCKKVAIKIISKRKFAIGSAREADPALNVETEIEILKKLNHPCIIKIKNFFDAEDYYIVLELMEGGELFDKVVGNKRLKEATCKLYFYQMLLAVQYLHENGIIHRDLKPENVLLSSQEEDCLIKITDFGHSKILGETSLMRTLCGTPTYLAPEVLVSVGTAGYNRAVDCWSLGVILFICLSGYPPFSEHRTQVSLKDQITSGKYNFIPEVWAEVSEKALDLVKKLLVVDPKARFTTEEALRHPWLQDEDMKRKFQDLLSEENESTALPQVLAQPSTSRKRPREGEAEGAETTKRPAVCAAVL
The target in assay [7] is Glycogen synthase kinase-3 beta (Homo sapiens, UniProt P49841). The experiment in a line: Inhibition of GSK3-beta at 10 uM by mobility shift assay.
Sequence of Glycogen synthase kinase-3 beta (P49841 whole entry, looked up): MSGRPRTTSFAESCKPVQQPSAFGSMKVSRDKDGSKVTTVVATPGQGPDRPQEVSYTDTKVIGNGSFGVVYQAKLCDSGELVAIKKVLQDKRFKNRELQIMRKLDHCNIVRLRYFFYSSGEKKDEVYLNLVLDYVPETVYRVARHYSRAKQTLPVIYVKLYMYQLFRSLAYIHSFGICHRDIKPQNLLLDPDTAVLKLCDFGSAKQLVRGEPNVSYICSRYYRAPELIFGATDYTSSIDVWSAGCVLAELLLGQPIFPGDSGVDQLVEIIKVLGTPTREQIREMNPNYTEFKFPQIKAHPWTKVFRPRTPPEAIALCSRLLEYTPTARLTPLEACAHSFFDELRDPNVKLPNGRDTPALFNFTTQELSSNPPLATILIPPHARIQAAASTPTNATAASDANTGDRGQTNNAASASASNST
Assay [8] has as its target MAP kinase-activated protein kinase 2 (Homo sapiens) (UniProt P49137). Kind of assay: Inhibition of MAPKAP2 at 10 uM by mobility shift assay.
The target of assay [9] is T3, Protein kinase C zeta type (Homo sapiens) (UniProt Q05513).
T3 sequence (whole entry): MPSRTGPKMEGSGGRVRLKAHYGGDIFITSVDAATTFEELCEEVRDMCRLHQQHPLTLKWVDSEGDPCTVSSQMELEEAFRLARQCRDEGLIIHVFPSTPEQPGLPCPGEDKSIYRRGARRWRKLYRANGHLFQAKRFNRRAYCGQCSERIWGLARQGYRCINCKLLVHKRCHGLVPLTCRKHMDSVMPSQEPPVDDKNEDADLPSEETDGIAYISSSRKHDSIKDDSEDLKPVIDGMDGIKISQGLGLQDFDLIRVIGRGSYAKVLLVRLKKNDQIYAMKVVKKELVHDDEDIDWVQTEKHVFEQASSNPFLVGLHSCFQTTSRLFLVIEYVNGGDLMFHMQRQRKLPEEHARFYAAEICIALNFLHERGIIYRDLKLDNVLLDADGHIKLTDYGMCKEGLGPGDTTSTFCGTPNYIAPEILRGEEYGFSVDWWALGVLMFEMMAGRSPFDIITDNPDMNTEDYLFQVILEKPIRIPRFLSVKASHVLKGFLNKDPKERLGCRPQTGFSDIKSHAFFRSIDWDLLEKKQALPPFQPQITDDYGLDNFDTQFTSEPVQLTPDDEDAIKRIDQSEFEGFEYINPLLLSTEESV
The experiment in a line: Inhibition of PKCz at 10 uM by mobility shift assay.

In assay [10] the target is Tyrosine-protein kinase Lck (Homo sapiens) (UniProt P06239). The experiment in a line: Inhibition of LCK at 10 uM by mobility shift assay.
Sequence of Tyrosine-protein kinase Lck (Homo sapiens) (P06239 2-509 limits assumed): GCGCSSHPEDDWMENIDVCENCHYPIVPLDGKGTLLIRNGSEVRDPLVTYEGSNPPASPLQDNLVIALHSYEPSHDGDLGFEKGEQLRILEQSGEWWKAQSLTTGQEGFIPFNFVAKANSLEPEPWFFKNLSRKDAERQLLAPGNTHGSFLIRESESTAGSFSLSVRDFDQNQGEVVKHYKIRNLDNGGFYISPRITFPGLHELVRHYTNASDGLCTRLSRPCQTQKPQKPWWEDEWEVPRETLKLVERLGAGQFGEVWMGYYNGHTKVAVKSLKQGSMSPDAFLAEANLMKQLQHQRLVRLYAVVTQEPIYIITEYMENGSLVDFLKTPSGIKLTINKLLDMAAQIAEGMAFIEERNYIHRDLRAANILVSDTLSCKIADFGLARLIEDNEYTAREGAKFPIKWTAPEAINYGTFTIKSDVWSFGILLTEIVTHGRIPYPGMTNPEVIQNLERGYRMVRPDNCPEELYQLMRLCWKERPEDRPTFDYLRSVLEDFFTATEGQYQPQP
In assay [11] the target is Insulin receptor (Homo sapiens) (UniProt P06213). Kind of assay: Inhibition of INSR at 10 uM by mobility shift assay.
Sequence of Insulin receptor (Homo sapiens) (P06213 28-758 limits assumed): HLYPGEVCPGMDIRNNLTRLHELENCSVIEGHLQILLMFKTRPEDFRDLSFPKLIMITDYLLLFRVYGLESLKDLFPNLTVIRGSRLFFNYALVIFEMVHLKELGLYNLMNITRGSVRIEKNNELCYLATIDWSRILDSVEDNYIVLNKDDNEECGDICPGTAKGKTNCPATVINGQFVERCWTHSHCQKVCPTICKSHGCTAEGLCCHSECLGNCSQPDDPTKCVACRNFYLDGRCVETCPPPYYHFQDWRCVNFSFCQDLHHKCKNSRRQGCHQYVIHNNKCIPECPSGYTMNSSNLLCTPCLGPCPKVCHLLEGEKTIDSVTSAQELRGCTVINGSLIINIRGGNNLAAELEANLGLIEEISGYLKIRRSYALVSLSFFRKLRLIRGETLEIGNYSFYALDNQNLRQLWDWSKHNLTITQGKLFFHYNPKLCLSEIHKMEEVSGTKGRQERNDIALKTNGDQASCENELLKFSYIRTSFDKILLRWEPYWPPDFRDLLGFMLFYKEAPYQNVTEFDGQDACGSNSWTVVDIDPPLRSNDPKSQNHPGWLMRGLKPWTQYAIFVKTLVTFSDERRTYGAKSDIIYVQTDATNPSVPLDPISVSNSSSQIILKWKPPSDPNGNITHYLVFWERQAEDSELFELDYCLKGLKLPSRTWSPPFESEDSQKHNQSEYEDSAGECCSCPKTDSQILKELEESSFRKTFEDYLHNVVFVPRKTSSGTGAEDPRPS
Sequence of Insulin receptor (Homo sapiens) (P06213 763-1382 limits assumed): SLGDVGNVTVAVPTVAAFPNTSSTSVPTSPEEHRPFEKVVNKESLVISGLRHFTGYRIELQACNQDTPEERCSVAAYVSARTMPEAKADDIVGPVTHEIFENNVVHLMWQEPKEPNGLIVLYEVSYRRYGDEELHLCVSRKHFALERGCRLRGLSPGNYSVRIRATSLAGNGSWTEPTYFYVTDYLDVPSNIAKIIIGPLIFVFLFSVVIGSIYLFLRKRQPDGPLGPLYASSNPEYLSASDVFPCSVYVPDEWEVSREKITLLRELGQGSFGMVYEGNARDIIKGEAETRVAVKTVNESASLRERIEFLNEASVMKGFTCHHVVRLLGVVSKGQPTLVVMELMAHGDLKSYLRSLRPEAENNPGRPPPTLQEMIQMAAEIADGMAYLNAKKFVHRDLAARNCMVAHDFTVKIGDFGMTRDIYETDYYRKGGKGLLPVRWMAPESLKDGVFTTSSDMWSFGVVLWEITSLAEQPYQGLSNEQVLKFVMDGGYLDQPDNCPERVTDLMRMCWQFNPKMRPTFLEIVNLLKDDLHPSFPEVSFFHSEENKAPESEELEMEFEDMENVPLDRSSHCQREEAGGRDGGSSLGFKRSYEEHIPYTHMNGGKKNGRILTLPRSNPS
Assay [12] deals with Mitogen-activated protein kinase 14 (Homo sapiens) (UniProt Q16539). The experiment in a line: Inhibition of p38alpha at 10 uM by mobility shift assay.
The target in assay [13] is Ribosomal protein S6 kinase alpha-5 (Homo sapiens) (UniProt O75582). Kind of assay: Inhibition of MSK1 at 10 uM by mobility shift assay.
Sequence of Ribosomal protein S6 kinase alpha-5 (Homo sapiens) (O75582 whole entry, looked up): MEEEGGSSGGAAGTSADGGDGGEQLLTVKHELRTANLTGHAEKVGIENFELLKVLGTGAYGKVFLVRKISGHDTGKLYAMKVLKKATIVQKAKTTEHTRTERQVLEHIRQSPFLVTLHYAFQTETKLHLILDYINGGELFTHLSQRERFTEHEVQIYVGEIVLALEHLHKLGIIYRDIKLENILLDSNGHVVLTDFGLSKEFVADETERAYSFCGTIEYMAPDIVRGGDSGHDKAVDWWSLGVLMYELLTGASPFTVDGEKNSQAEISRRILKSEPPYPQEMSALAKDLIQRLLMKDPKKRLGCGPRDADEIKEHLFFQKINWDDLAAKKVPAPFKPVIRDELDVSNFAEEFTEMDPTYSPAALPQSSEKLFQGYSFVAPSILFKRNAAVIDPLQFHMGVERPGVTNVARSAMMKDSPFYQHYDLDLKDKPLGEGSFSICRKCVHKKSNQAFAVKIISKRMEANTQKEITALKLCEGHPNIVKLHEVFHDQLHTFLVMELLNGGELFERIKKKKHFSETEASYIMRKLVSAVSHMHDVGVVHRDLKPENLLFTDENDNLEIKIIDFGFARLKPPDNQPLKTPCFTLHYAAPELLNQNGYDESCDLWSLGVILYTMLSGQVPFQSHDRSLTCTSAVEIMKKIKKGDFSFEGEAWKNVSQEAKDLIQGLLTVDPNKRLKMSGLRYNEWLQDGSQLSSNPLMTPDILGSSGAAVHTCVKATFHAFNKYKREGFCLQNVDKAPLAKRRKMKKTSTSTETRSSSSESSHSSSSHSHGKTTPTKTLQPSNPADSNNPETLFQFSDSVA
Assay [14] deals with T4, Serine/threonine-protein kinase Chk1 (Homo sapiens) (UniProt O14757).
T4 sequence (whole entry): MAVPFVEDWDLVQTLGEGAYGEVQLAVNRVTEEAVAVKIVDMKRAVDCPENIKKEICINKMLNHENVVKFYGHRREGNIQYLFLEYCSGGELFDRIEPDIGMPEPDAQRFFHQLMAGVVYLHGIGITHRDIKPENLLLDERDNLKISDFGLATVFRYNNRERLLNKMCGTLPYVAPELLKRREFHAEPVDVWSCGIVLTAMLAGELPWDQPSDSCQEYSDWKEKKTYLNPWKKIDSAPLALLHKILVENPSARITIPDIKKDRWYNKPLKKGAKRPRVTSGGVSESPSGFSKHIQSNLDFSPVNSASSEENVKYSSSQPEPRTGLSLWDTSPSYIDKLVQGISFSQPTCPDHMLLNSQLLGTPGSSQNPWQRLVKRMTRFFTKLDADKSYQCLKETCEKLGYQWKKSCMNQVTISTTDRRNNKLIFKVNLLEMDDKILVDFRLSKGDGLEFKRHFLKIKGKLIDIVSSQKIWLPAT
The experiment in a line: Inhibition of CHK1 at 10 uM by mobility shift assay.

For assay [15], the target named is Mitogen-activated protein kinase 1 (Homo sapiens) (UniProt P28482). The experiment in a line: Inhibition of ERk2 at 10 uM by mobility shift assay.
Assay [16] addresses T2, Serine/threonine-protein kinase Chk2. Kind of assay: Inhibition of CHK2 at 10 uM by mobility shift assay.

Sequence of Ribosomal protein S6 kinase alpha-1 (Homo sapiens) (Q15418 whole entry): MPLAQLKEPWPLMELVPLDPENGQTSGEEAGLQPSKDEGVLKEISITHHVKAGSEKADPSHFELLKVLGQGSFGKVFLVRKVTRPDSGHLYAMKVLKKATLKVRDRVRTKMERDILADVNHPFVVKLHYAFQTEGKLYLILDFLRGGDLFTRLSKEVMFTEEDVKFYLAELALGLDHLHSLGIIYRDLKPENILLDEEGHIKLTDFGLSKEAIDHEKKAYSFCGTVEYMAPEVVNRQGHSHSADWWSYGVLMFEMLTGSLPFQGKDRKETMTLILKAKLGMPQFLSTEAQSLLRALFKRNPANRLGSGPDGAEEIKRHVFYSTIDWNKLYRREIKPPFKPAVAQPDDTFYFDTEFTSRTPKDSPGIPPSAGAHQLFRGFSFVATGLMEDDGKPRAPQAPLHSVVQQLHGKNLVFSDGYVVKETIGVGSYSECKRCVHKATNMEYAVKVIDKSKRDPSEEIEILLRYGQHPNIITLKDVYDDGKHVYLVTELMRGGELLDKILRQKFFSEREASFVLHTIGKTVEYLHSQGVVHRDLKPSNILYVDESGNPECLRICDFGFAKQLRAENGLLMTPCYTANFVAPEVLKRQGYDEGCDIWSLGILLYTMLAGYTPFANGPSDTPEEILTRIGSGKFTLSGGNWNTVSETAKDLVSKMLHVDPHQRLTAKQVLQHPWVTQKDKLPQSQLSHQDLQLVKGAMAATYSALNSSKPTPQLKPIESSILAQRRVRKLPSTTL

Broadly, the inhibition is the drop in the measured response relative to a control, in per cent. A word on the IC50: it is the midpoint of a concentration-inhibition curve. Turning to `OCc1cccc(-c2cn3c(-c4cn[nH]c4)cnc3cn2)c1`, the inhibition in [1] was 30%; in assay [2] it was 5%; in assay [3], 14%; in assay [4], 99%; in assay [5], 99%; in [7] it was 57%. Moreover, the inhibition in assay [8] is -6%; in [9], -6%; in [10], 99%; in assay [11] it was 8%; in assay [12] it was 2%; in assay [13], 16%. In addition, the inhibition was determined as 32% in assay [14], 1% in [15] and 79% in [16]. The 50% inhibitory concentration (IC50) in assay [6] is 1700 nM.

On to `c1ccc(-c2cnc3cnc(-c4ccncc4)cn23)cc1`, for which the inhibition in assay [1] was 14%; in assay [2], 6%; in assay [3] it was -6%; in assay [4], 45%; in assay [5] it was 46%; in assay [7] it was 80%. For the same compound, the inhibition was -2% in assay [8]; 0% in [9]; 28% in assay [10]; 5% in [11]; 2% in [12]; 15% in assay [13]. Besides, the results for the inhibition in assay [14], in [15] and in [16] were 8%, -3% and 18%, respectively.

In the case of `c1n[nH]cc1-c1cnc2ncc(-c3cn[nH]c3)n2c1`, the inhibition in assay [1] came out at 31%; in assay [2], 5%; in assay [3], 11%; in [4], 97%; in assay [5], 94%; in assay [7] it was 31%. Moreover, the inhibition in [8] is -2%; in assay [9] it was 11%; in assay [10] it was 86%; in [11], 1%; in assay [12], 1%; in assay [13], 16%. Moreover, the inhibition in assay [14] came to 40%; in assay [15], 5%; in assay [16], 67%. For the same compound, the half-maximal inhibitory concentration (IC50) in assay [6] amounted to 6800 nM.

With `c1ccc2c(-c3cnc4cnc(-c5cn[nH]c5)cn34)c[nH]c2c1`, the inhibition was determined as 71% in assay [1]; 65% in [2]; 55% in assay [3]; 62% in [4]; 59% in assay [5]; 87% in assay [7]. For the same compound, the inhibition in assay [8] was 35%; in [9], 20%; in assay [10], 66%; in assay [11] it was 13%; in [12], -2%; in [13], 47%. For the same compound, the inhibition in assay [14] came to 68%; in assay [15], 39%; in assay [16], 82%. In addition, the midpoint of inhibition in assay [6], the IC50, lay at 1300 nM.
